Entries after “also recorded” stand apart in the source; their conditions may differ.
What was measured:
[1] = system: mTOR pathway proteins (p70S6K, S6, 4E-BP1, AKT, cyclin D3) in MDA-468 cells; assay: Western Blots on proteins involved in translational control; assay type: cell-based, human; conditions: MDA-468, 24 hour incubation
Procedure: 16-24 hours after, the growth medium were shifted to growth medium containing compounds.
After 24 or 48 hours incubation with compounds, cells were washed with ice cold PBS buffer and harvested in lysis buffer: Cytobuster reagent (Novagen) containing phosphatase inhibitor cocktail 1 and 2 and protease inhibitor cocktail (Sigma). Samples containing an equal amount of protein were loaded onto 7% Tris Acetate gels, 10% Bis-Tris in MES buffer or 12% Bis-Tris gels using MOPS running buffer (Invitrogen). Following electrophoresis the samples were blotted onto a PVDF membrane (Invitrogen). For membrane blocking and antibody incubations of p70 S6K, Phospho-p70 S6K (Thr389), PathscanI and S6 antibodies (Cell Signalling Technology) a buffer containing 0.2% Tween-20, 5% non-fat dry milk, 5% FBS, in Tris buffered Saline (TBS) were used. For immunoblotting of 4EBP1, Phospho 4EBP1 (Thr37/46), Phospho 4EBP1 (Ser65) (Cell Signalling Technology) and Cyclin D3 (Santa Cruz) a protocol from Cell Signalling Technology were used. Cell Signalling Technology blocking buffer contains 0.1% Tween-20, 5% non fat dry milk in TBS and primary antibody dilution buffer contains 0.1% Tween-20, 5% BSA in TBS. Before adding primary antibody dilution buffer to the membranes, the blots were rinsed briefly in 0.1% Tween-20. […] Peroxidase activity was detected using the ECL detection system (Amersham Biosciences).

MDA-MB-231 cells = assay: Protein synthesis, 14C-Leucine incorporation (Cytostar-T); assay type: cell-based, human; conditions: all time-points
Procedure: (§1) As described in “Leucine Uptake [^14C] Cytostar-T assay, Amersham Biosciences” (CFA773).
(§2) And incubated overnight in growth medium. The next day medium was carefully aspirated (8-channel Vacuboy) and 50 μL of fresh pre-warmed medium (10% FCS, 10 mM HEPES pH 7.2-7.5) was added. Cells were allowed to equilibrate at 37° C. for 60 min. Test compounds were added in 50 μL medium and ^14C-leucine was added in 100 μL medium (0.5 μCi mL−1 final). Plates were sealed with transparent, adhesive foil. Plates were then incubated in a 37° C. for 6 h in a humidified incubator. Incorporation of radioactive leucine into proteins (a measure of protein synthesis) was then read by coincidence scintillation (counts per minute (CPM)) using a Wallac Microbeta detector at the indicated time-intervals. A reading a t=0 (5 min after sealing plates) for each well is subtracted as background.

MDA-MB-468 cells = assay: as above; assay type: cell-based, human; conditions: all time-points
Procedure: as §1, §2

[2] = system: BT-474 breast cancer cell line; assay: Alamar Blue cell proliferation assay; assay type: cell-based; conditions: Homo sapiens, BT-474, 72 h, BT-474, 10% FBS, read-out: EC50 (nM), IC50 values for inhibition of cell proliferation
Procedure: (§3) Cell culture: All cell lines except MCF10A are maintained in RPMI medium containing 10% foetal Bovine Serum (FBS) 100 U/ml penicillin, and 100 μg/ml streptomycin. MCF10A is maintained in mammary epithelial growth medium (MEGM) with singlequot addition (BPE, hydrocortisone, hEGF, insulin, gentamicin/amphotericin-B) (Clonetics/Cambrex Bio Science). All cell lines are incubated at 37° C., 5% CO2, and 95% humidity.
(§4) Alamar Blue cell proliferation assay: Cells are plated in black cell culture treated Packard/Perkin Elmer 96-viewplates in 100 μl/well RPMI medium containing […], 100 U/ml penicillin, and 100 μg/ml streptomycin. Cell proliferation has been estimated in triplicate for all cell lines in medium containing either 1% FBS or 10% FBS. The day after plating, the growth medium is changed to either 100 μl/well RPMI containing 1% FBS, 100 U/ml penicillin, 100 μg/ml streptomycin and 25 μg/ml gentamicin or to 100 μl/well RPMI containing 10% FBS, 100 U/ml penicillin, 100 μg/ml streptomycin and 25 μg/ml gentamicin. Compounds are added in 9 point half-log dilution series at concentrations indicated in the graphs. […] Briefly, compounds are diluted in compound plates in growth medium containing either 1% FBS or 10% FBS corresponding to the medium in the plates. Compounds are transferred to the cell plates by transfer of 100 μl/well, resulting in a total volume of 200 μl/well containing compound at concentrations indicated in graphs and 0.25% DMSO. Terfenedine is used as a control for maximal cell kill in wells containing 50 μM terfenedine and 0.5% DMSO (Smax). Negative control wells (So) contain medium with 0.25% DMSO.
(§5) After compound addition cell plates are incubated undisturbed for 72 hours at 37° C., 5% CO2, and 95% humidity.
(§6) The number of viable cells is estimated using an Alamar Blue assay that measures mitochondrial activity. The medium is decanted and replaced with 150 μl/well RPMI medium without phenol-red containing 100 U/ml penicillin, and 100 μg/ml streptomycin and 10% Alamar Blue. The plates are placed in the incubator at 37° C., 5% CO2, and 95% humidity for 2 hours. Then, plates are moved to a table and allowed to cool to room temperature without stacking the plates. Alamar Blue signal is read in a fluorescence plate reader using a 590 nm emission filter and a 530 nm excitation filter.
(§7) Data handling/calculations: Data are normalised to values from 0% activity (S0) to 100% activity (Smax). Average values for S0 and Smax are calculated and used to calculate percent activity (PCTACT) in the assays by the formula: PCTACT=(Xraw−Smax)/(S0−Smax)*100.

[3] = system: BT-549 breast cancer cell line; assay: Alamar Blue cell proliferation assay; assay type: cell-based; conditions: Homo sapiens, BT-549, 72 h, BT-549, 10% FBS, read-out: EC50 (nM), IC50 values for inhibition of cell proliferation
Procedure: as §3, §4, §5, §6, §7

[4] = system: DU-145 prostate cancer cell line; assay: Alamar Blue cell proliferation assay; assay type: cell-based; conditions: Homo sapiens; DU-145, 10% FBS, 72 hours; read-out: EC50 (nM); IC50 values for inhibition of cell proliferation
Procedure: as §3, §4, §5, §6, §7

[5] = system: HCC-1954 breast cancer cell line; assay: Alamar Blue cell proliferation assay; assay type: cell-based; conditions: Homo sapiens, HCC1954, 72 h, HCC-1954, 10% FBS, read-out: EC50 (nM), IC50 values for inhibition of cell proliferation
Procedure: as §3, §4, §5, §6, §7

[6] = system: LnCaP prostate cancer cell line; assay: Alamar Blue cell proliferation assay; assay type: cell-based; conditions: Homo sapiens, 10% FBS, 72 hours, read-out: EC50 (nM), IC50 values for inhibition of cell proliferation
Procedure: as §3, §4, §5, §6, §7

[7] = system: MCF7 breast cancer cell line; assay: Alamar Blue cell proliferation assay; assay type: cell-based; conditions: Homo sapiens, MCF7, 72 h, MCF7, 10% FBS, read-out: EC50 (nM), IC50 values for inhibition of cell proliferation
Procedure: as §3, §4, §5, §6, §7

[8] = system: MDA-MB-231 breast cancer cell line; assay: Alamar Blue cell proliferation assay; assay type: cell-based; conditions: Homo sapiens; MDA-MB-231, 10% FBS, 72 hours; read-out: EC50 (nM); IC50 values for inhibition of cell proliferation
Procedure: as §3, §4, §5, §6, §7

[9] = system: MDA-MB-435S breast cancer cell line; assay: Alamar Blue cell proliferation assay; assay type: cell-based; conditions: Homo sapiens, 10% FBS, 72 hours, read-out: EC50 (nM), IC50 values for inhibition of cell proliferation
Procedure: as §3, §4, §5, §6, §7

[10] = system: MDA-MB-453 breast cancer cell line; assay: Alamar Blue cell proliferation assay; assay type: cell-based; conditions: Homo sapiens, MDA-MB-453, 72 h, MDA-MB-453, 10% FBS, read-out: EC50 (nM), IC50 values for inhibition of cell proliferation
Procedure: as §3, §4, §5, §6, §7

[11] = system: MDA-MB-468 breast cancer cell line; assay: Alamar Blue cell proliferation assay; assay type: cell-based; conditions: Homo sapiens, MDA-MB-468, 72 h, MDA-MB-468, 10% FBS, read-out: EC50 (nM), IC50 values for inhibition of cell proliferation
Procedure: as §3, §4, §5, §6, §7

[12] = system: PC-3/M prostate cancer cell line; assay: Alamar Blue cell proliferation assay; assay type: cell-based; conditions: Homo sapiens, 10% FBS, 72 hours, read-out: EC50 (nM), IC50 values for inhibition of cell proliferation
Procedure: as §3, §4, §5, §6, §7

[13] = system: SKBr-3 breast cancer cell line; assay: Alamar Blue cell proliferation assay; assay type: cell-based; conditions: Homo sapiens, SK-BR-3, 72 h, SKBr-3, 10% FBS, read-out: EC50 (nM), IC50 values for inhibition of cell proliferation
Procedure: as §3, §4, §5, §6, §7

[14] = system: T47-D breast cancer cell line; assay: Alamar Blue cell proliferation assay; assay type: cell-based; conditions: Homo sapiens, T47D, 72 h, 10% FBS, read-out: EC50 (nM), IC50 values for inhibition of cell proliferation
Procedure: as §3, §4, §5, §6, §7

[15] = system: ZR75-1 breast cancer cell line; assay: Alamar Blue cell proliferation assay; assay type: cell-based; conditions: Homo sapiens, ZR-75-1; ZR75-1, 10% FBS, 72 hours; read-out: EC50 (nM); IC50 values for inhibition of cell proliferation
Procedure: as §3, §4, §5, §6, §7

[16] = system: non-transformed human breast epithelial cell line MCF10A; assay: Alamar Blue cell proliferation assay; assay type: cell-based; conditions: MCF-10A, serum-free MEGM medium, 72 hours, read-out: EC50 (nM), IC50 values for inhibition of cell proliferation
Procedure: as §3, §4, §5, §6, §7

[17] = system: PC-3 prostate cancer cell line; assay: Alamar Blue cell proliferation assay; assay type: cell-based, human
Procedure: as §3
(§8) Alamar Blue cell proliferation assay: Cells are plated in black cell culture treated Packard/Perkin Elmer 96-viewplates in 100 μl/well RPMI medium containing […], 100 U/ml penicillin, and 100 μg/ml streptomycin. Cell proliferation has been estimated in triplicate for all cell lines in medium containing either 1% FBS or 10% FBS. […]
(§9) The number of viable cells is estimated using an Alamar Blue assay that measures mitochondrial activity. […] Alamar Blue signal is read in a fluorescence plate reader using a 590 nm emission filter and a 530 nm excitation filter.
as §7

[18] = system: panel of human breast cancer cell lines; assay: Alamar Blue cell proliferation assay, summary over the breast panel; assay type: cell-based; conditions: 10% FBS; FIGS. 9, 10 and 11
Procedure: as §3, §8, §9, §7

[19] = system: panel of prostate cancer cell lines; assay: Alamar Blue cell proliferation assay, summary over the prostate panel; assay type: cell-based; conditions: 10% FBS
Procedure: as §3, §8, §9, §7

MDA-MB-468 tumours = assay: Xenograft studies using MDA-MB-468 tumours; assay type: in vivo, mice
MCF-7 tumours = assay: Xenograft studies using MCF-7 tumours; assay type: in vivo, mice
Procedure: Nude balb/c mice weighing 25-45 grams are implanted with MCF-7 tumours by subcutaneous implantation in both flanks. […] Tumour volume is determined once or twice/week.

[20] = monotherapy, PO daily for 15 days or IV weekly for 4 weeks

## CO[C@H]1C[C@@H]2CC[C@@H](C)[C@@](O)(O2)C(=O)C(=O)N2CCCC[C@H]2C(=O)O[C@H]([C@H](C)C[C@@H]2CC[C@@H](O)[C@H](OC)C2)CC(=O)[C@H](C)/C=C(\C)[C@@H](O)[C@@H](OC)C(=O)[C@H](C)C[C@H](C)/C=C/C=C/C=C/1C [rapamycin]
[1]
  AKT phosphorylation on Ser473 (Western blot): not inhibited

## C[C@@H]1C[C@@H]([C@H](O)CC2CC(=O)NC(=O)C2)C(=O)[C@@H](C)C1 [Cycloheximide]
MDA-MB-231 cells
  Effect of control compounds on 14C-Leucine incorporation: completely inhibit
MDA-MB-468 cells
  Effect of control compounds on 14C-Leucine incorporation: completely inhibit

## O=C1Nc2ccccc2C1(c1ccc(O)cc1)c1ccc(O)cc1 [Oxyphenisatine]
[2]
  IC50: 324 nM
[3]
  IC50: 859 nM
[4]
  IC50: > 3000 nM
[5]
  IC50: 912 nM
[6]
  IC50: 790 nM
[7]
  IC50: 517 nM
[8]
  IC50: > 3000 nM
[9]
  IC50: > 3000 nM
[10]
  IC50: 228 nM
[11]
  IC50: 935 nM
[12]
  IC50: > 3000 nM
[13]
  IC50: 527 nM
[14]
  IC50: 324 nM
[15]
  IC50: 285 nM
[16]
  IC50: > 3000 nM
[17]; Homo sapiens, PC-3, 10% FBS, 72 hours, read-out: EC50 (nM), IC50 values for inhibition of cell proliferation
  IC50: 899 nM
[18]
  Potency relative to Compound 3, breast cell line panel: slightly lower in potency
[19]
  Potency relative to Compound 3, prostate cell line panel: lower potency than Compound 3

## COc1ccc(C[C@H]2NC[C@H](O)[C@H]2OC(C)=O)cc1 [Anisomycin]
MDA-MB-231 cells
  Effect of control compounds on 14C-Leucine incorporation: completely inhibit
MDA-MB-468 cells
  Effect of control compounds on 14C-Leucine incorporation: completely inhibit

## O=C1Nc2c(ccc(F)c2F)C1(c1ccc(O)cc1)c1ccc(O)cc1 [Compound 41, 6,7-Difluoro-3,3-bis-(4-hydroxy-phenyl)-1,3-dihydro-indol-2-one]
[17]; 10% FBS
  Effect on proliferation of PC-3: inhibit the proliferation
MDA-MB-468 tumours; [20]
  Rate of tumour growth, MDA-MB-468 xenograft: reduces the rate of MDA-MB-468 human breast cancer tumour cell growth
MDA-MB-468 tumours; monotherapy, PO or IV
  Tumour regression, MDA-MB-468 xenograft: induces tumour regression at all doses tested; also recorded: more pronounced tumour regression at all doses tested
MDA-MB-468 tumours; mouse, in vivo
  Effect compared with paclitaxel, MDA-MB-468 xenograft: more pronounced than following administration of paclitaxel; also recorded: more effective than paclitaxel
  Per-oral versus intravenous dosing, MDA-MB-468 xenograft: equally effective by per-oral and intravenous dosing
MCF-7 tumours; [20]
  Tumour size / growth, MCF-7 xenograft: reduces the rate of MCF-7 human breast cancer tumour cell growth; also recorded: reduces the size of MCF7 tumours
MCF-7 tumours; monotherapy, PO or IV
  Tumour regression, MCF-7 xenograft: induces tumour regression at all doses tested; also recorded: tumour regression is noted using all doses tested
MCF-7 tumours; mouse, in vivo
  Effect compared with paclitaxel, MCF-7 xenograft: more pronounced than following administration of paclitaxel; also recorded: appears to be greater than paclitaxel
  Per-oral versus intravenous dosing, MCF-7 xenograft: equally effective by the per-oral and intravenous dosing

Reference: patent publication US20070299102A1, “Diphenyl Ox-Indol-2-One Compounds and Their Use in the Treatment of Cancer” (Topo Target A/S, priority 2004, published 2007)
